Measured values published in US20120122860A1, “SOLID FORMS OF SULFONAMIDES AND AMINO ACIDS” (Plexxikon, Inc., priority 2009, published 2012).

Columns and labels:
[1] = molecular target: T1, TEC (Homo sapiens, UniProt P42680); test: Kinase activity assay, TEC
T1 sequence (P42680 1-631): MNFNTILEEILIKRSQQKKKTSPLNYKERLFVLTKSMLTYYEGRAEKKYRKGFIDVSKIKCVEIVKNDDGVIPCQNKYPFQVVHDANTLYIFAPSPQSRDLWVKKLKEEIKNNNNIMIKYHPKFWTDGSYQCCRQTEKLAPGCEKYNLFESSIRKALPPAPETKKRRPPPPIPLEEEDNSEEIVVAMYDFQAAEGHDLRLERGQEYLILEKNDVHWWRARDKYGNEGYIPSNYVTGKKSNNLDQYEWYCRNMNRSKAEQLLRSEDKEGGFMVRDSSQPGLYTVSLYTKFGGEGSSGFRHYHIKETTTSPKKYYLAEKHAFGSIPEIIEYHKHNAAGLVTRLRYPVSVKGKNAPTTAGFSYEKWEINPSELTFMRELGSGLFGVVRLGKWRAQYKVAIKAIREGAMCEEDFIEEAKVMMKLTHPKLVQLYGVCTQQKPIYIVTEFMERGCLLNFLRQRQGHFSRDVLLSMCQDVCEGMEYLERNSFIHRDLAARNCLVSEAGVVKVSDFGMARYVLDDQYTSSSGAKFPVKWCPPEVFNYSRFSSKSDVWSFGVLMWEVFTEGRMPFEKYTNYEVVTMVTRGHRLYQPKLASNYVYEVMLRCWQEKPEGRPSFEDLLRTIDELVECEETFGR

[2] = molecular target: B-Raf (Homo sapiens, UniProt P15056); test: Kinase activity assay, B-Raf; type: biochemical; conditions: read-out: activity toward kinase B-Raf, IC50
[3] = molecular target: Btk (Homo sapiens, UniProt Q06187); test: Kinase activity assay, Btk
[4] = molecular target: B-Raf V600E (Homo sapiens, UniProt P15056, V600E); test: Kinase activity assay, B-Raf V600E; type: biochemical; conditions: read-out: activity toward kinase B-Raf V600E, IC50
[5] = molecular target: MAP4K4 (Homo sapiens, UniProt O95819); test: Kinase activity assay, MAP4K4
[6] = molecular target: Kit (Homo sapiens, UniProt P10721); test: Kinase activity assay, Kit
[7] = molecular target: Flt1 (Homo sapiens, UniProt P17948); test: Kinase activity assay, Flt1
[8] = molecular target: Kdr (Homo sapiens, UniProt P35968); test: Kinase activity assay, Kdr
[9] = molecular target: Fms (Homo sapiens, UniProt P07333); test: Kinase activity assay, Fms
[10] = molecular target: Src (Homo sapiens, UniProt P12931); test: Kinase activity assay, Src
[11] = molecular target: C-Raf (Homo sapiens, UniProt P04049); test: Kinase activity assay, C-Raf
[12] = molecular target: T2, A-Raf (Homo sapiens, UniProt P10398); test: Kinase activity assay, A-Raf
T2 sequence (P10398 1-606): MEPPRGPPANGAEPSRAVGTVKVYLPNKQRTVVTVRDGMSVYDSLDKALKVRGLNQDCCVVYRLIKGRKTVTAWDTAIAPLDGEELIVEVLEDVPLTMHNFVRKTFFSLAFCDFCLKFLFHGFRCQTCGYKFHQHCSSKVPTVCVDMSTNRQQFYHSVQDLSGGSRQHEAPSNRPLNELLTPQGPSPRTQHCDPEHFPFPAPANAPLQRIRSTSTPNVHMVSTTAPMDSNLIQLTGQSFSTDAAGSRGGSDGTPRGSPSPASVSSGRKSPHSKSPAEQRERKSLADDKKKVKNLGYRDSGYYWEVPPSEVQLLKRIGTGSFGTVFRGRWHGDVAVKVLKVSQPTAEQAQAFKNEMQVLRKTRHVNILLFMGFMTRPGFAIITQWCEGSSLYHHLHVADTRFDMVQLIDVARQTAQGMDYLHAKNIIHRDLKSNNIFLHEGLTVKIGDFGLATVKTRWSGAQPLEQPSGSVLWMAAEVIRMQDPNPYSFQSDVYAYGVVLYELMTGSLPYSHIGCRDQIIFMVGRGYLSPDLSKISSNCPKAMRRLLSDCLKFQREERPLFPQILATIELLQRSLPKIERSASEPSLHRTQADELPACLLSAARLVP

Measured: IC50

Chain of MAP4K4 (O95819 whole entry): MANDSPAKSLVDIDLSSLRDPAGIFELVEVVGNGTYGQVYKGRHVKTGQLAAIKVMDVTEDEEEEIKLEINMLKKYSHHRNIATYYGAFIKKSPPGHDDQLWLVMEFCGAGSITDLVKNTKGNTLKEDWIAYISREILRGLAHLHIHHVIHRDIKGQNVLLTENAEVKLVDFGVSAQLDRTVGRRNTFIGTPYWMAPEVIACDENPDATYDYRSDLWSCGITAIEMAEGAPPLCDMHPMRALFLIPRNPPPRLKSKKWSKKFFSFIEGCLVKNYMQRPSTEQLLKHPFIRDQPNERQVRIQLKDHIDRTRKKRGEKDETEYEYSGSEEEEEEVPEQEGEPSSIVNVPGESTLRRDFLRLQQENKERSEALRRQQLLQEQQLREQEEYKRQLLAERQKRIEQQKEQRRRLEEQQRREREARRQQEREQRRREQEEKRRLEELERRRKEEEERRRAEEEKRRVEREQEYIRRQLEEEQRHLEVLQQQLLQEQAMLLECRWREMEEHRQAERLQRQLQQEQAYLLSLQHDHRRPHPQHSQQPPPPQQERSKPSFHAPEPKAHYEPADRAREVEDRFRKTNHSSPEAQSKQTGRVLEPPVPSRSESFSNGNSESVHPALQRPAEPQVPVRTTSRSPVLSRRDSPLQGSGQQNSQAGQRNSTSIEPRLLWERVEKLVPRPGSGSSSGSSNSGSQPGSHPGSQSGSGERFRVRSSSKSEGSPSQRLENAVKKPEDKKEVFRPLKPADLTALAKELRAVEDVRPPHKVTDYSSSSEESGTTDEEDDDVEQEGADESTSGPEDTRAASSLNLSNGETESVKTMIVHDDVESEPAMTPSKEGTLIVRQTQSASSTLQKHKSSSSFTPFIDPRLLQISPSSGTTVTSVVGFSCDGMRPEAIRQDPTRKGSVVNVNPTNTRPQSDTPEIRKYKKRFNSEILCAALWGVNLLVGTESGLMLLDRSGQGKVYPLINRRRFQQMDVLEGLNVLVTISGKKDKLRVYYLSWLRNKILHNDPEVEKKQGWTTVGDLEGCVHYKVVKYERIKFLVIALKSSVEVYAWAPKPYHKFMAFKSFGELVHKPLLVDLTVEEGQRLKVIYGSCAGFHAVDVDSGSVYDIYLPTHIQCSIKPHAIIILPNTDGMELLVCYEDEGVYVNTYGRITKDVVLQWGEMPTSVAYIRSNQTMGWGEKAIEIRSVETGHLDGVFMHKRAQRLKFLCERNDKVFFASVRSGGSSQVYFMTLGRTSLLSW
Chain of Btk (Q06187 whole entry): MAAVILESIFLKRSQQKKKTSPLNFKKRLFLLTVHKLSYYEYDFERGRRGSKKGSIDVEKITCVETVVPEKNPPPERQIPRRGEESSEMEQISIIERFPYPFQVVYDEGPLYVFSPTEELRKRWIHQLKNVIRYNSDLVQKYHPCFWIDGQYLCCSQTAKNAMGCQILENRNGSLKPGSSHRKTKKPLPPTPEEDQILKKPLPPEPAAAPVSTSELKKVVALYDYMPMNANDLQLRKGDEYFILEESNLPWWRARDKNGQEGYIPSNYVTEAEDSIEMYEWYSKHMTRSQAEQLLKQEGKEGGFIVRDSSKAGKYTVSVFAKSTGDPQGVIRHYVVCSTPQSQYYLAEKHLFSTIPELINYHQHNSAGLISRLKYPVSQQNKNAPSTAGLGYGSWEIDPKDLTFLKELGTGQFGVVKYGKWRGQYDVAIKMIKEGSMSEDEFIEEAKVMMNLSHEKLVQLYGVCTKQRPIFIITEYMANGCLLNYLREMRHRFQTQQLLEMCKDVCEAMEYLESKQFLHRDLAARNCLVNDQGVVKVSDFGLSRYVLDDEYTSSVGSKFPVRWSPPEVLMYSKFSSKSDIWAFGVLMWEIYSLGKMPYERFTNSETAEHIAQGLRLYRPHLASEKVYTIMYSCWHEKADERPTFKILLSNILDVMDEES
Chain of Flt1 (P17948 27-1338): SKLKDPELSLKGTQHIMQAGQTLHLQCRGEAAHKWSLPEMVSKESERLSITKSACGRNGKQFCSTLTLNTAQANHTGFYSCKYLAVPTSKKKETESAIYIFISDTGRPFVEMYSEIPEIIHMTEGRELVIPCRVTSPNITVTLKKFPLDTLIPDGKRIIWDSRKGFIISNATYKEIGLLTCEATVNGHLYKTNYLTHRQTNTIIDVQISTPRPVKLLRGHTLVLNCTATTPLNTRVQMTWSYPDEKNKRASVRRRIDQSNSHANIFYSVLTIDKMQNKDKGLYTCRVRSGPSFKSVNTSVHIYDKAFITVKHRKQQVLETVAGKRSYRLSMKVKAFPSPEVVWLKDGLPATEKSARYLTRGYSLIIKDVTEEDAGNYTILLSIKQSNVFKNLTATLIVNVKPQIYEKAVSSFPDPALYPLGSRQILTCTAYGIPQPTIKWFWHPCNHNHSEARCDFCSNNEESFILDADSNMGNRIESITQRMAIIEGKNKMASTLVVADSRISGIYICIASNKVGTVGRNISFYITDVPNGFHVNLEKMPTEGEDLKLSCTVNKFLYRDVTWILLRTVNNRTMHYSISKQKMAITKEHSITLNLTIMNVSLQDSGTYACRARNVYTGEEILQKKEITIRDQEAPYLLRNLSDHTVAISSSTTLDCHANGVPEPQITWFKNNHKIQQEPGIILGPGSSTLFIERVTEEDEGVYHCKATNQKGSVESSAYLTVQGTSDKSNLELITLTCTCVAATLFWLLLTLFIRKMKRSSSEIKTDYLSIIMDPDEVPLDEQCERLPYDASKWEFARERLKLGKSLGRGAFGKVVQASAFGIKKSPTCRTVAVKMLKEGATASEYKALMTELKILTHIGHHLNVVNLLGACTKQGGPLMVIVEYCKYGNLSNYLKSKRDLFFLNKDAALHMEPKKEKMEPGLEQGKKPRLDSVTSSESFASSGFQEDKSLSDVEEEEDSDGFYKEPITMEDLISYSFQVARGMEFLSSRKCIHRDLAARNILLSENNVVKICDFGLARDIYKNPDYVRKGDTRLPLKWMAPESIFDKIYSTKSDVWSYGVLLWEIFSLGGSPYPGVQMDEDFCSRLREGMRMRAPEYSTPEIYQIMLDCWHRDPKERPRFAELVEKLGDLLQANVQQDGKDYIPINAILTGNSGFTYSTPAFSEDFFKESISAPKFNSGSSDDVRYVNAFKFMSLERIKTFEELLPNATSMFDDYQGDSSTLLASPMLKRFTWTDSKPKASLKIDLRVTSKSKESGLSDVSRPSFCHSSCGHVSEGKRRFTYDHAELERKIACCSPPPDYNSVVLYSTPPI
Chain of C-Raf (P04049 whole entry): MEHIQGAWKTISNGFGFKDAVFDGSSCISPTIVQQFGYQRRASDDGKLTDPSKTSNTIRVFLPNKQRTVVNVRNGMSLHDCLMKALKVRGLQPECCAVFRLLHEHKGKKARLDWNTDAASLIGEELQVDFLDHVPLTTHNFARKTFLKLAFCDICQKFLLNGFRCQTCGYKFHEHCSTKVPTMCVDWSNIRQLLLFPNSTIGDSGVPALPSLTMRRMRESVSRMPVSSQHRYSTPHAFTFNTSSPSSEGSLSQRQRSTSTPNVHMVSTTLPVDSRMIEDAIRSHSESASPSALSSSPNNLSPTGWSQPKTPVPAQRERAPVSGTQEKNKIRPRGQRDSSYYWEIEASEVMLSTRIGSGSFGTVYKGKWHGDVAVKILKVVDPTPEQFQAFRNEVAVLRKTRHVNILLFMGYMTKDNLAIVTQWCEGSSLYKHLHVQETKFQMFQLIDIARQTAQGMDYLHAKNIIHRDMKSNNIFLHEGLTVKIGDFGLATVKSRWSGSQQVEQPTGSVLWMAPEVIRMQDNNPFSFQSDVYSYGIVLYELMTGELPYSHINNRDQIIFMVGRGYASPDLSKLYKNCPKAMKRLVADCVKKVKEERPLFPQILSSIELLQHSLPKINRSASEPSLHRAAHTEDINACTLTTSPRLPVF
Chain of B-Raf V600E (P15056 whole entry V600E): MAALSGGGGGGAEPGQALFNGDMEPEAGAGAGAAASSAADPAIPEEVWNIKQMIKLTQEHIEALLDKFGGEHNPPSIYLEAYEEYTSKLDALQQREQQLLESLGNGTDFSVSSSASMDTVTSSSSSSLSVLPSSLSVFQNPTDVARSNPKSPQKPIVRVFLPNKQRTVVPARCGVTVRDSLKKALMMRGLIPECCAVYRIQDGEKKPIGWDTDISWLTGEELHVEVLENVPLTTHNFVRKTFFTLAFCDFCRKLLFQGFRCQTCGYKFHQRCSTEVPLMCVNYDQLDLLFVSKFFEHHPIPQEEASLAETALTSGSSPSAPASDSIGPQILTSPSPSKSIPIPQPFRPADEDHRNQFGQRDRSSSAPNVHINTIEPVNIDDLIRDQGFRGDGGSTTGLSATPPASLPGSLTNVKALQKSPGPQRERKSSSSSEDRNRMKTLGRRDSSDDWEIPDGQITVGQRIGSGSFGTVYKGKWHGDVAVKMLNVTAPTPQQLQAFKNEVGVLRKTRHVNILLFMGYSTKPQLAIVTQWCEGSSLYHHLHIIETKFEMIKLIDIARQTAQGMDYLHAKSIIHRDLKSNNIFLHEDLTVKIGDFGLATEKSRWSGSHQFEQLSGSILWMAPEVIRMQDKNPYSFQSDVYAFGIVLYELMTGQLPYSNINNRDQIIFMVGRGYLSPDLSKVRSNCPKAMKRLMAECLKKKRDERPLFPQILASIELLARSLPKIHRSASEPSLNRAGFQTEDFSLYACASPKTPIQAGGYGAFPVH
Chain of B-Raf (P15056 whole entry): as the sequence (P15056 whole entry V600E) above, with E600V counted along it

Cn1cc(-c2cnc3[nH]cc(C(=O)c4c(F)ccc(NS(=O)(=O)c5cccc(OC(F)F)c5)c4Cl)c3c2)cn1 [P-2099, N-{2-Chloro-4-fluoro-3-[5-(1-methyl-1H-pyrazol-4-yl)-1H-pyrrolo[2,3-b]pyridine-3-carbonyl]-phenyl}-3-difluoromethoxy-benzenesulfonamide]
not listed: [10] | [11] | [12]
≤ 10 µM: all other assays above

Cn1cc(-c2cnc3[nH]cc(C(=O)c4cc(NS(=O)(=O)c5ccc(F)cc5)ccc4F)c3c2)cn1 [P-2100, 4-Fluoro-N-{4-fluoro-3-[5-(1-methyl-1H-pyrazol-4-yl)-1H-pyrrolo[2,3-b]pyridine-3-carbonyl]-phenyl}-benzenesulfonamide]
≤ 10 µM: [3] | [4] | [6] | [7] | [8] | [10] | [9]

CCCS(=O)(=O)Nc1ccc(F)c(C(=O)c2c[nH]c3ncc(-c4ccc(C(=O)NCC)nc4)cc23)c1F [P-2151, 5-{3-[2,6-Difluoro-3-(propane-1-sulfonylamino)-benzoyl]-1H-pyrrolo[2,3-b]pyridin-5-yl}-pyridine-2-carboxylic acid ethylamide]
not listed: [1] | [3] | [5] | [12]
≤ 10 µM: all other assays above

CCCS(=O)(=O)Nc1ccc(F)c(C(=O)c2c[nH]c3ncc(-c4cnc(N(C)C)nc4)cc23)c1F [P-2196, Propane-1-sulfonic acid {3-[5-(2-dimethylamino-pyrimidin-5-yl)-1H-pyrrolo[2,3-b]pyridine-3-carbonyl]-2,4-difluoro-phenyl}-amide]
≤ 10 µM: [2] | [4] | [7] | [12] | [8] | [10] | [11]

CCCS(=O)(=O)Nc1ccc(F)c(C(=O)c2c[nH]c3nccc(OC)c23)c1F [P-2210, Propane-1-sulfonic acid [2,4-difluoro-3-(4-methoxy-1H-pyrrolo[2,3-b]pyridine-3-carbonyl)-phenyl]-amide]
≤ 10 µM: [2] | [4] | [7] | [12] | [8] | [10] | [11]

CCCS(=O)(=O)Nc1ccc(F)c(C(=O)c2c[nH]c3ncc(-c4ccc(C)nc4)cc23)c1F [P-2213, Propane-1-sulfonic acid {2,4-difluoro-3-[5-(6-methyl-pyridin-3-yl)-1H-pyrrolo[2,3-b]pyridine-3-carbonyl]-phenyl}-amide]
not listed: [1] | [3] | [5] | [12]
≤ 10 µM: all other assays above

CCCS(=O)(=O)Nc1ccc(F)c(C(=O)c2c[nH]c3ncc(-c4ccc(OCCO)nc4)cc23)c1F [P-2215, Propane-1-sulfonic acid (2,4-difluoro-3-{5-[6-(2-hydroxy-ethoxy)-pyridin-3-yl]-1H-pyrrolo[2,3-b]pyridine-3-carbonyl}-phenyl)-amide]
not listed: [1] | [3] | [12]
≤ 10 µM: all other assays above

CCCS(=O)(=O)Nc1ccc(F)c(C(=O)c2c[nH]c3ncc(-c4ccc(OCCCN(CC)CC)nc4)cc23)c1F [P-2216, Propane-1-sulfonic acid (3-{5-[6-(3-diethylamino-propoxy)-pyridin-3-yl]-1H-pyrrolo[2,3-b]pyridine-3-carbonyl}-2,4-difluoro-phenyl)-amide]
not listed: [1] | [3] | [5] | [12]
≤ 10 µM: all other assays above

CCCS(=O)(=O)Nc1ccc(F)c(C(=O)c2c[nH]c3ncc(-c4ccc(S(=O)(=O)CC)cc4)cc23)c1F [P-2218, Propane-1-sulfonic acid {3-[5-(4-ethanesulfonyl-phenyl)-1H-pyrrolo[2,3-b]pyridine-3-carbonyl]-2,4-difluoro-phenyl}-amide]
≤ 10 µM: [2] | [4] | [6] | [7] | [8] | [11] | [9]

CC(C)CS(=O)(=O)Nc1ccc(F)c(C(=O)c2c[nH]c3ncc(-c4cnn(C)c4)cc23)c1F [P-2299, 2-Methyl-propane-1-sulfonic acid {2,4-difluoro-3-[5-(1-methyl-1H-pyrazol-4-yl)-1H-pyrrolo[2,3-b]pyridine-3-carbonyl]-phenyl}-amide]
not listed: [5] | [11] | [12]
≤ 10 µM: all other assays above

CCCCS(=O)(=O)Nc1ccc(F)c(C(=O)c2c[nH]c3ncc(-c4cnn(C)c4)cc23)c1Cl [P-2430, Butane-1-sulfonic acid {2-chloro-4-fluoro-3-[5-(1-methyl-1H-pyrazol-4-yl)-1H-pyrrolo[2,3-b]pyridine-3-carbonyl]-phenyl}-amide]
not listed: [3] | [10] | [12]
≤ 10 µM: all other assays above
